Entries after “also recorded” stand apart in the source; their conditions may differ. Read-outs that look alike come from different tables or passages of the source. Where a SMILES comes first, the peptide text is derived from it. [ ]: non-standard residue; d: D form. The star is where a group is joined. DOTA = O=C(O)CN1CCN(CC(=O)O)CCN(CC(=O)*)CCN(CC(=O)O)CC1
Assay: Biodistribution experiments in normal mice after i.v. injection
Assay type: in vivo
Details: i.v.; for tissue uptake dose at 10 min / tissue uptake dose at 1 h / tissue uptake dose at 3 h: male, ddY, mouse, in vivo, iv, total radioactivity; for tissue uptake dose at 10 min / tissue uptake dose at 1 h / tissue uptake dose at 3 h / F/B ratio (Femur:blood ratio) / Biodistribution of radioactivity, Blood / Biodistribution of radioactivity, Bone (Femur) / Biodistribution of radioactivity, Brain / Biodistribution of radioactivity, Heart / Biodistribution of radioactivity, Kidney / Biodistribution of radioactivity, Large-intestine / Biodistribution of radioactivity, Liver / Biodistribution of radioactivity, Lung / Biodistribution of radioactivity, Muscle / Biodistribution of radioactivity, Pancreas / Biodistribution of radioactivity, Small-intestine / Biodistribution of radioactivity, Spleen / Biodistribution of radioactivity, Stomach: mice, mean (SD); for Accumulation of radioactivity in bone (in words): normal mice
Method: Experiments with animals were conducted in strict accordance with the Guidelines for the Care and Use of Laboratory Animals of Kanazawa University. The animal experimental protocols used were approved by the Committee on Animal Experimentation of Kanazawa University (Permit Number: AP-132633). Biodistribution experiments were performed after intravenous administration of each diluted tracer solution (37–740 kBq/100 μL) to 6-week-old male ddY mice (27–32 g, Japan SLC, Inc., Hamamatsu, Japan). Four or five mice at each time point after the administration of each compound were sacrificed by decapitation at 10, 60, and 180 min post-injection. Tissues of interest were taken and weighed. Complete left femurs were isolated as representative bone samples, radioactivity was determined using gamma counters (AccuFLEX γ ARC-8001 in the case of ^18F, Hitachi, Ltd.), and background counts and physical decay were corrected during counting.

Compound: O=C(O)C[C@@H](NC(=O)[C@@H](CC(=O)O)NC(=O)[C@@H](CC(=O)O)NC(=O)[C@@H](CC(=O)O)NC(=O)[C@@H](CC(=O)O)NC(=O)[C@@H](CC(=O)O)NC(=O)[C@@H](CC(=O)O)NC(=O)[C@@H](CC(=O)O)NC(=O)[C@@H](CC(=O)O)NC(=O)[C@@H](CC(=O)O)NC(=O)[C@@H](CC(=O)O)NC(=O)CN1CCN(CC(=O)O)CCN(CC(=O)O)CCN(CC(=O)O)CC1)C(=O)O [^67Ga-DOTA-(D-Asp)11, metal not drawn] ({DOTA}-[dD][dD][dD][dD][dD][dD][dD][dD][dD][dD][dD]-OH)
- tissue uptake dose at 10 min (10 min after injection, footnote b, read-out: Biodistribution of radioactivity, Stomach): 0.18 %ID
- tissue uptake dose at 10 min (10 min after injection, read-out: Biodistribution of radioactivity, Blood): 1.71 %ID
- tissue uptake dose at 10 min (10 min after injection, read-out: Biodistribution of radioactivity, Bone (Femur)): 11.9 %ID
- tissue uptake dose at 10 min (10 min after injection, read-out: Biodistribution of radioactivity, Brain): 0.05 %ID
- tissue uptake dose at 10 min (10 min after injection, read-out: Biodistribution of radioactivity, Heart): 0.65 %ID
- tissue uptake dose at 10 min (10 min after injection, read-out: Biodistribution of radioactivity, Kidney): 12.8 %ID
- tissue uptake dose at 10 min (10 min after injection, read-out: Biodistribution of radioactivity, Large-intestine): 0.28 %ID
- tissue uptake dose at 10 min (10 min after injection, read-out: Biodistribution of radioactivity, Liver): 0.51 %ID
- tissue uptake dose at 10 min (10 min after injection, read-out: Biodistribution of radioactivity, Lung): 1.24 %ID
- tissue uptake dose at 10 min (10 min after injection, read-out: Biodistribution of radioactivity, Muscle): 0.58 %ID
- tissue uptake dose at 10 min (10 min after injection, read-out: Biodistribution of radioactivity, Pancreas): 0.53 %ID
- tissue uptake dose at 10 min (10 min after injection, read-out: Biodistribution of radioactivity, Small-intestine): 0.38 %ID
- tissue uptake dose at 10 min (10 min after injection, read-out: Biodistribution of radioactivity, Spleen): 0.44 %ID
- tissue uptake dose at 1 h (60 min after injection, footnote b, read-out: Biodistribution of radioactivity, Stomach): 0.04 %ID
- tissue uptake dose at 1 h (60 min after injection, read-out: Biodistribution of radioactivity, Blood): 0.14 %ID
- tissue uptake dose at 1 h (60 min after injection, read-out: Biodistribution of radioactivity, Bone (Femur)): 15.3 %ID
- tissue uptake dose at 1 h (60 min after injection, read-out: Biodistribution of radioactivity, Brain): 0.01 %ID
- tissue uptake dose at 1 h (60 min after injection, read-out: Biodistribution of radioactivity, Heart): 0.04 %ID
- tissue uptake dose at 1 h (60 min after injection, read-out: Biodistribution of radioactivity, Kidney): 2.92 %ID
- tissue uptake dose at 1 h (60 min after injection, read-out: Biodistribution of radioactivity, Large-intestine): 0.03 %ID
- tissue uptake dose at 1 h (60 min after injection, read-out: Biodistribution of radioactivity, Liver): 0.2 %ID
- tissue uptake dose at 1 h (60 min after injection, read-out: Biodistribution of radioactivity, Lung): 0.08 %ID
- tissue uptake dose at 1 h (60 min after injection, read-out: Biodistribution of radioactivity, Muscle): 0.18 %ID
- tissue uptake dose at 1 h (60 min after injection, read-out: Biodistribution of radioactivity, Pancreas): 0.09 %ID
- tissue uptake dose at 1 h (60 min after injection, read-out: Biodistribution of radioactivity, Small-intestine): 0.07 %ID
- tissue uptake dose at 1 h (60 min after injection, read-out: Biodistribution of radioactivity, Spleen): 0.13 %ID
- tissue uptake dose at 3 h (180 min after injection, footnote b, read-out: Biodistribution of radioactivity, Stomach): 0.02 %ID
- tissue uptake dose at 3 h (180 min after injection, read-out: Biodistribution of radioactivity, Blood): 0.08 %ID
- tissue uptake dose at 3 h (180 min after injection, read-out: Biodistribution of radioactivity, Bone (Femur)): 15.4 %ID
- tissue uptake dose at 3 h (180 min after injection, read-out: Biodistribution of radioactivity, Brain): 0.02 %ID
- tissue uptake dose at 3 h (180 min after injection, read-out: Biodistribution of radioactivity, Heart): 0.03 %ID
- tissue uptake dose at 3 h (180 min after injection, read-out: Biodistribution of radioactivity, Kidney): 1 %ID
- tissue uptake dose at 3 h (180 min after injection, read-out: Biodistribution of radioactivity, Large-intestine): 0.11 %ID
- tissue uptake dose at 3 h (180 min after injection, read-out: Biodistribution of radioactivity, Liver): 0.13 %ID
- tissue uptake dose at 3 h (180 min after injection, read-out: Biodistribution of radioactivity, Lung): 0.05 %ID
- tissue uptake dose at 3 h (180 min after injection, read-out: Biodistribution of radioactivity, Muscle): 0.06 %ID
- tissue uptake dose at 3 h (180 min after injection, read-out: Biodistribution of radioactivity, Pancreas): 0.04 %ID
- tissue uptake dose at 3 h (180 min after injection, read-out: Biodistribution of radioactivity, Small-intestine): 0.05 %ID
- tissue uptake dose at 3 h (180 min after injection, read-out: Biodistribution of radioactivity, Spleen): 0.1 %ID
- F/B ratio (Femur:blood ratio) (10 min after injection): 7.01 (0.56)
- F/B ratio (Femur:blood ratio) (60 min after injection): 147.10 (71.25)
- F/B ratio (Femur:blood ratio) (180 min after injection): 248.95 (170.64)
- Accumulation of radioactivity in bone (in words): high accumulation and retention of radioactivity in bone

Compound: [18F-].[Na+] [[^18F]NaF, reference compound]
- Biodistribution of radioactivity, Blood (10 min after injection): 1.78 (0.23) % injected dose
- Biodistribution of radioactivity, Bone (Femur) (10 min after injection): 27.69 (3.15) % injected dose
- Biodistribution of radioactivity, Brain (10 min after injection): 0.10 (0.02) % injected dose
- Biodistribution of radioactivity, Heart (10 min after injection): 1.84 (0.41) % injected dose
- Biodistribution of radioactivity, Kidney (10 min after injection): 5.23 (2.31) % injected dose
- Biodistribution of radioactivity, Large-intestine (10 min after injection): 0.95 (0.22) % injected dose
- Biodistribution of radioactivity, Liver (10 min after injection): 1.34 (0.17) % injected dose
- Biodistribution of radioactivity, Lung (10 min after injection): 1.44 (0.19) % injected dose
- Biodistribution of radioactivity, Muscle (10 min after injection): 0.83 (0.13) % injected dose
- Biodistribution of radioactivity, Pancreas (10 min after injection): 0.87 (0.15) % injected dose
- Biodistribution of radioactivity, Small-intestine (10 min after injection): 1.31 (0.22) % injected dose
- Biodistribution of radioactivity, Spleen (10 min after injection): 1.10 (0.15) % injected dose
- F/B ratio (Femur:blood ratio) (10 min after injection): 15.59 (1.01)
- Biodistribution of radioactivity, Stomach (10 min after injection, footnote b): 0.36 (0.04) % injected dose
- Biodistribution of radioactivity, Blood (60 min after injection): 0.11 (0.04) % injected dose
- Biodistribution of radioactivity, Bone (Femur) (60 min after injection): 39.96 (2.52) % injected dose
- Biodistribution of radioactivity, Brain (60 min after injection): 0.36 (0.52) % injected dose
- Biodistribution of radioactivity, Heart (60 min after injection): 0.15 (0.05) % injected dose
- Biodistribution of radioactivity, Kidney (60 min after injection): 1.13 (0.89) % injected dose
- Biodistribution of radioactivity, Large-intestine (60 min after injection): 1.21 (0.27) % injected dose
- Biodistribution of radioactivity, Liver (60 min after injection): 0.09 (0.02) % injected dose
- Biodistribution of radioactivity, Lung (60 min after injection): 0.10 (0.03) % injected dose
- Biodistribution of radioactivity, Muscle (60 min after injection): 0.07 (0.04) % injected dose
- Biodistribution of radioactivity, Pancreas (60 min after injection): 0.08 (0.08) % injected dose
- Biodistribution of radioactivity, Small-intestine (60 min after injection): 0.68 (0.10) % injected dose
- Biodistribution of radioactivity, Spleen (60 min after injection): 0.08 (0.02) % injected dose
- F/B ratio (Femur:blood ratio) (60 min after injection): 381.63 (84.17)
- Biodistribution of radioactivity, Stomach (60 min after injection, footnote b): 0.06 (0.02) % injected dose
- Biodistribution of radioactivity, Blood (180 min after injection): 0.02 (0.00) % injected dose
- Biodistribution of radioactivity, Bone (Femur) (180 min after injection): 43.91 (2.64) % injected dose
- Biodistribution of radioactivity, Brain (180 min after injection): 0.05 (0.02) % injected dose
- Biodistribution of radioactivity, Heart (180 min after injection): 0.02 (0.01) % injected dose
- Biodistribution of radioactivity, Kidney (180 min after injection): 0.15 (0.08) % injected dose
- Biodistribution of radioactivity, Large-intestine (180 min after injection): 1.39 (0.19) % injected dose
- Biodistribution of radioactivity, Liver (180 min after injection): 0.02 (0.00) % injected dose
- Biodistribution of radioactivity, Lung (180 min after injection): 0.03 (0.01) % injected dose
- Biodistribution of radioactivity, Muscle (180 min after injection): 0.01 (0.01) % injected dose
- Biodistribution of radioactivity, Pancreas (180 min after injection): 0.02 (0.03) % injected dose
- Biodistribution of radioactivity, Small-intestine (180 min after injection): 0.06 (0.02) % injected dose
- Biodistribution of radioactivity, Spleen (180 min after injection): 0.02 (0.00) % injected dose
- F/B ratio (Femur:blood ratio) (180 min after injection): 1983.88 (256.88)
- Biodistribution of radioactivity, Stomach (180 min after injection, footnote b): 0.13 (0.14) % injected dose
- Accumulation of radioactivity in bone (in words): high accumulation and retention of radioactivity in bone; also recorded: highest bone uptake

Reference: article PMC5656653, “Evaluation of Ga-DOTA-(D-Asp)n as bone imaging agents: D-aspartic acid peptides as carriers to bone” (Scientific Reports, 2017)
